Data as given in PMC8466373, “Plant-Derived and Dietary Hydroxybenzoic Acids—A Comprehensive Study of Structural, Anti-/Pro-Oxidant, Lipophilic, Antimicrobial, and Cytotoxic Activity in MDA-MB-231 and MCF-7 Cell Lines” (Nutrients, 2021).
Values after ≈ are worked out from the molar mass of the structure shown. Read-outs that look alike come from different tables or passages of the source.

Experiments:
[1] = ref 102; cited from earlier work
[2] = cited from earlier work
[3] = CUPRAC assay (cupric-reducing antioxidant capacity); format: biochemical; conditions: concentration of 50 μM, methanolic solutions
Experimental: CUPRAC assay was carried out according to the method described in [44]. First, […] of CuCl2 (C = 10 mM; in water) was mixed with […] of ammonium acetate (pH 7; in water) and neocuproine (C = 75 mM; in ethanol). […] The samples were mixed and incubated for 60 min at room temperature (23 °C). The absorbance of the samples was measured with a UV–Vis spectrophotometer at λ = 450 nm against a blank (containing 0.5 mL of methanol instead of the sample). […] R^2 = 0.9919).

[4] = tested on: Salmonella enteritidis (NCTC 4776); test: MIC by serial dilution in agar medium; format: cell-based; conditions: Salmonella enterica
Experimental: The following bacterial strains were used in this study: Escherichia coli (PCM 2857), Pseudomonas aeruginosa (PCM 2720), Bacillus subtilis (PCM 2850), Staphylococcus aureus (PCM 2267), Salmonella enteritidis (NCTC 4776), and Candida albicans (PCM 2566-FY). The microbial strains were bought from the Polish Collection of Microorganisms (Wroclaw, Poland) or the American Type Culture Collection.
The MIC (minimal inhibitory concentration) was determined by serial dilution of the tested compound in an agar medium, to which the appropriate inoculum of microorganisms was then added and incubated. Escherichia coli, Pseudomonas aeruginosa, Staphylococcus aureus, Bacillus subtilis, Salmonella enteritidis, and Candida albicans were grown overnight and then resuspended in physiological saline to an optical density at 600 nm (OD = 600) of 0.60, corresponding to 5.0 × 10^8 CFU/mL. Bacteria (0.1 mL of the reconstituted suspension) were seeded onto sterile Mueller–Hinton agar plates, to which previously suitable amounts of the tested compounds were added to reach the desired concentration. Tested chemicals were dissolved in DMSO solution. Negative controls were agar plates, to which DMSO was added, while positive controls were plates with gentamycin (in the case of bacteria) or flucanozole (in the case of fungi). The plates were incubated at 37 °C for 24 h. The lowest concentration without visible bacterial growth was determined as the MIC.

[5] = Lipophilicity via RP-HPLC; format: physicochemical
Experimental: The analyses were carried out on the following chromatographic columns: RP-18e Purospher STAR (C18), 150 mm × 4.0 mm, 5 µm, (Merck, Darmstadt, Germany); RP-8e Purospher STAR (C8), 150 mm × 4.6 mm, 5 µm, (Merck, Darmstadt, Germany); Zorbax Eclipse XDB-CN (CN), 150 mm × 4.6 mm, 5 µm, (Agilent Technologies, Santa Clara, CA, USA); Nucleosil Phenyl (PHE), 250 mm × 4.6 mm, 7 µm, (Supelco, Bellefonte, PA, USA); and Regis Rexchrom IAM.PC.DD.2 (IAM), 100 mm × 4.6 mm, 10 µm, (Regis Technologies Inc., Morton Grave, IL, USA). The experimental conditions and the calculations were as described in [46].

[6] = cited from earlier work; remark: listed apart in the source
[7] = cited from earlier work; for inhibition: read-out: DPPH radical scavenging activity (%)
[8] = tested on: MDA-MB-231 cells; test: Cytotoxicity, neutral red (NR) assay; format: cell-based, human; conditions: for Cytotoxicity (mM) in Cell Line MDA-MB-231, IC50: 48 h treatment, neutral red assay
Experimental: (§1) Briefly, MCF-7 cells were cultured in EMEM (Biological Industries, Israel) medium supplemented with 10% fetal calf serum (Gibco). MDA-MB-231 cells were cultured in Leibovitz‘s L15 (Biological Industries, Beit HaEmek, Israel) medium supplemented with 10% fetal calf serum (Gibco). The MCF-7 cells were incubated in a 5% CO2 atmosphere at 37 °C, whereas the MDA-231 cells were incubated in a 100% air atmosphere at 37 °C.
(§2) Cytotoxicity evaluation was conducted to assess the impact of hydroxybenzoic acids on the proliferation of MCF-7 and MDA-MB-231 cells, which was measured via neutral red (NR) assay. In brief, cells were seeded in 96-well microplates (TPP, Switzerland) at a density of 2 × 10^4 cells/well in 100 μL of culture medium. At least three independent experiments in six replicate wells were conducted per concentration. Twenty-four hours after cell seeding, cells were treated with increasing concentrations of hydroxybenzoic acids (0.02–5 mM) for forty-eight hours. After treatment, cells were incubated for 3 h at 37 °C with 100 µL of neutral red solution (stock solution of NR) (Sigma-Aldrich), and then 5 mg/mL of PBS was diluted 1:100 in cell culture medium, incubated for 12 h at 37 °C, and centrifuged to remove any undissolved NR powder. […] After 15 min of gentle shaking, optical density was read at 540 nm with an Infinite M200 plate reader spectrophotometer (Tecan, Austria).

[9] = tested on: MCF-7 cells; test: Cytotoxicity, neutral red (NR) assay; format: cell-based, human; conditions: for Cytotoxicity (mM) in Cell Line MCF-7, IC50: 48 h treatment, neutral red assay
Experimental: as §1, §2

[10] = Pro-oxidant activity, Trolox oxidation assay; format: biochemical; conditions: after 120 min of incubation, concentrations of 35 μM
Experimental: The pro-oxidant activity was expressed as the rate of Trolox oxidation according to the protocol described in [45]. First, a mixture of 0.5 mL of Trolox (C = 0.4 mM; in water) with 0.5 mL of H2O2 (C = 0.2 mM; in water), 0.5 mL of HRP (C = 0.04 μM; in phosphate buffer; pH = 7), 5 μL of the tested compounds (C = 50 μM; in methanol), and […] of distilled water was prepared as the tested sample. […] The control contained methanol instead of the tested substance.

[11] = tested on: MDA-MB-231 cells; design: method as in PMID 31746356; conditions: incubated for 48 h; cited from earlier work
[12] = C = 0,001 mg/mL, λ = 593 nm, t = 30 min
[13] = C = 10 μM, CDPPH = 100 μM, t = 30 min
[14] = C = 15 μM, CDPPH = 60 μM, t = 30 min
[15] = CDPPH = 60 μM, t = 30 min, read-out: DPPH, IC50
[16] = CDPPH = 1 mM, t = 20 min, read-out: DPPH, IC50
[17] = Salmonella enteritidis, read-out: MIC
[18] = CDPPH = 90 μM, t = 30 min, read-out: DPPH, IC50

Row | MIC [4, 17] [µg/mL] | Compound | LogPexp. [1] | pKaexp. ([2]; at 25 °C) | pKaexp. ([2]; ref 104) | pKaexp. ([2]; ref 105) | CUPRAC assay: Trolox equivalent [3] [µM] | log kw ([5]; C8 column) | ϕ0 ([5]; C8 column) | log kw ([5]; C18 column) | ϕ0 ([5]; C18 column) | log kw ([5]; CN column) | ϕ0 ([5]; CN column) | log kw ([5]; IAM column) | ϕ0 ([5]; IAM column) | log kw ([5]; PHE column) | ϕ0 ([5]; PHE column) | FRAP [6, 12] | inhibition [7, 13] [%] | IC50 [7, 16] [µM] | degree of Trolox oxidation [10] [%] | also measured
1 |  | O=C(O)c1ccc(O)c(O)c1 [3,4-DHB, 3,4-dihydroxybenzoic acid] | 0.86 [102] | 4.26 | 4.48 | 4.16 | 60.53 | 1.00 | 0.83 | 2.32 | 0.45 | 1.58 | 1.08 | 0.44 | 1.13 | 1.07 | 0.50 | ≈ 0.65 (C = 0,001 mg/mL), λ = 593 nm, t = 30 min) [73] μM Fe^2+ | ~70 | 0.0574 | 8.44 | MIC [4]: 2000 µg/mL (≈ 13 mM); inhibition [7, 14]: ~88.5%; IC50 ([7]; CDPPH = 50 μM, t = 30 min, read-out: DPPH, IC50): 3.83 µM; IC50 [7, 15]: 15.8 µM; Cytotoxicity (mM) in Cell Line MDA-MB-231, IC50 [8]: nontoxic; Cytotoxicity (mM) in Cell Line MCF-7, IC50 [9]: nontoxic
2 | 2000 (≈ 13 mM) | O=C(O)c1cc(O)cc(O)c1 [3,5-DHB, 3,5-dihydroxybenzoic acid] | 0.86 [102] |  | 4.04 | 3.61 |  | 0.90 | 0.83 | 2.56 | 0.45 | 1.78 | 1.07 | 0.51 | 1.16 | 1.03 | 0.55 | ≈ 0.03 (C = 0,001 mg/mL), λ = 593 nm, t = 30 min) [73] μM Fe^2+ |  |  | 8.03 | pKaexp. ([2]; ref 108): 4.04; IC50 [7, 18]: 385 µM; Cytotoxicity (mM) in Cell Line MDA-MB-231, IC50 [8]: nontoxic; Cytotoxicity (mM) in Cell Line MCF-7, IC50 [9]: nontoxic
3 | 3000 (≈ 19.5 mM) | O=C(O)c1cc(O)ccc1O [2,5-DHB, 2,5-dihydroxybenzoic acid] |  |  |  |  | 68.77 |  |  |  |  |  |  |  |  |  |  | ≈ 0.98 (C = 0,001 mg/mL), λ = 593 nm, t = 30 min) [73] μM Fe^2+ |  | 0.0292 |  | concentration that inhibited colony formation [11]: 100 µM; FRAP ([6]; C = 5 μM, λ = 594 nm, t = n.d.): 75.39 (C = 5 μM, λ = 594 nm, t = n.d.) [62] μM Fe^2+; FRAP ([6]; C = 50 μM, λ = 594 nm, t = n.d.): 236.86 (C = 50 μM, λ = 594 nm, t = n.d.) [62] μM Fe^2+; IC50 [7, 15]: 6.3 µM; IC50 ([7]; CDPPH = 60 μM, t = 60 min, read-out: DPPH, IC50): 4.95 µM; IC50 [7, 18]: 37 µM
4 | 3000 (≈ 19.5 mM) | O=C(O)c1c(O)cccc1O [2,6-DHB, 2,6-dihydroxybenzoic acid] | 2.20 [102] |  | 1.30 | 1.51 |  | 1.17 | 1.05 | 2.99 | 0.68 | 1.49 | 1.08 | 1.31 | 1.14 | 0.87 | 1.05 |  |  |  | 9.52 | IC50 ([7]; CDPPH = 500 μM, t = 30 min, read-out: DPPH, IC50): 232 µM
5 |  | O=C(O)c1cc(O)c(O)c(O)c1 [3,4,5-THB, 3,4,5-trihydroxybenzoic acid] | 0.70 [102] |  | 4.41 | 3.94 | 73.85 | 0.50 | 0.91 | 1.91 | 0.37 | 1.24 | 1.06 | 0.15 | 1.44 | 0.83 | 0.33 | ≈ 1.03 (C = 0,001 mg/mL), λ = 593 nm, t = 30 min) [73] μM Fe^2+ | ~70 | 0.0237 |  | pKaexp. ([2]; ref 110): 4.40; inhibition [7, 14]: 88.5%; inhibition ([7]; C ≈ 0.7 mM, CDPPH = 200 μM, t = 30 min): 40%; IC50 ([7]; after 30 min of incubation with a free radical, read-out: DPPH IC50): 4.2 µM; inhibition of growth of MDA-MB-231 cells ([8]; concentration of 5 mM): almost completely; inhibition of growth of MCF-7 cells ([9]; concentration of 5 mM): almost completely

Row | Compound | MIC [4, 17] [µg/mL] | LogPexp. [1] | pKaexp. ([2]; at 25 °C) | pKaexp. ([2]; ref 104) | pKaexp. ([2]; ref 105) | CUPRAC assay: Trolox equivalent [3] [µM] | log kw ([5]; C8 column) | ϕ0 ([5]; C8 column) | log kw ([5]; C18 column) | ϕ0 ([5]; C18 column) | log kw ([5]; CN column) | ϕ0 ([5]; CN column) | log kw ([5]; IAM column) | ϕ0 ([5]; IAM column) | log kw ([5]; PHE column) | ϕ0 ([5]; PHE column) | FRAP [6, 12] | inhibition [7, 13] [%] | IC50 [7, 16] [µM] | degree of Trolox oxidation [10] [%] | also measured
6 | O=C(O)c1cccc(O)c1O [2,3-DHB, 2,3-Dihydroxybenzoic acid] | 5000 (≈ 32.4 mM) | 1.20 [102] | 2.91 | 2.98 | 2.56 | 60.83 | 1.70 | 0.87 | 2.47 | 0.60 | 1.59 | 1.16 | 2.17 | 1.08 | 1.25 | 0.93 |  |  |  |  | concentration that inhibited colony formation [11]: ~ 500 µM
